Measured values published in PubChem BioAssay (NCI).
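Interpolation was linear, between the two tested concentrations surrounding the appropriate level; five concentrations were tested over 48 hours in 96-well plates. At the TGI there is no net growth.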

Columns and labels:
Assay in all cases: inhibition of tumour cell growth, NCI panel, 48 h
NCI-H226 lung = test system: NCI-H226 lung
CCRF-CEM leukemia = test system: CCRF-CEM leukemia
NCI/ADR-RES ovarian = test system: NCI/ADR-RES ovarian
HL-60(TB) leukemia = test system: HL-60(TB) leukemia
ACHN renal = test system: ACHN renal
SW-620 colon = test system: SW-620 colon
HT29 colon = test system: HT29 colon
MDA-MB-231 breast = test system: MDA-MB-231 breast
UO-31 renal = test system: UO-31 renal
KM12 colon = test system: KM12 colon
PC-3 prostate = test system: PC-3 prostate
COLO 205 colon = test system: COLO 205 colon
786-0 renal = test system: 786-0 renal
CAKI-1 renal = test system: CAKI-1 renal
OVCAR-5 ovarian = test system: OVCAR-5 ovarian
U251 CNS = test system: U251 CNS
NCI-H460 lung = test system: NCI-H460 lung
SNB-19 CNS = test system: SNB-19 CNS
RXF 393 renal = test system: RXF 393 renal
OVCAR-8 ovarian = test system: OVCAR-8 ovarian
SF-295 CNS = test system: SF-295 CNS
SNB-75 CNS = test system: SNB-75 CNS
BT-549 breast = test system: BT-549 breast
NCI-H522 lung = test system: NCI-H522 lung
HCT-15 colon = test system: HCT-15 colon
HCT-116 colon = test system: HCT-116 colon
M14 melanoma = test system: M14 melanoma
OVCAR-4 ovarian = test system: OVCAR-4 ovarian
A549 NSCLC = test system: A549 NSCLC
SK-MEL-28 melanoma = test system: SK-MEL-28 melanoma
UACC-62 melanoma = test system: UACC-62 melanoma
SF-268 CNS = test system: SF-268 CNS
MDA-N = test system: MDA-N
HS 578T breast = test system: HS 578T breast
EKVX NSCLC = test system: EKVX NSCLC
SK-MEL-5 melanoma = test system: SK-MEL-5 melanoma
SK-OV-3 ovarian = test system: SK-OV-3 ovarian
HOP-92 NSCLC = test system: HOP-92 NSCLC
DU-145 prostate = test system: DU-145 prostate
RPMI-8226 leukemia = test system: RPMI-8226 leukemia
HCC-2998 colon = test system: HCC-2998 colon
MALME-3M melanoma = test system: MALME-3M melanoma
MDA-MB-435 = test system: MDA-MB-435
A498 renal = test system: A498 renal
UACC-257 melanoma = test system: UACC-257 melanoma
K-562 leukemia = test system: K-562 leukemia
NCI-H23 lung = test system: NCI-H23 lung
IGROV1 ovarian = test system: IGROV1 ovarian
MOLT-4 leukemia = test system: MOLT-4 leukemia
OVCAR-3 ovarian = test system: OVCAR-3 ovarian
TK-10 renal = test system: TK-10 renal
SN12C renal = test system: SN12C renal
SK-MEL-2 melanoma = test system: SK-MEL-2 melanoma
SF-539 CNS = test system: SF-539 CNS
MCF7 breast = test system: MCF7 breast
LOX IMVI melanoma = test system: LOX IMVI melanoma
HOP-62 NSCLC = test system: HOP-62 NSCLC

With `CC(=O)Nc1c(S(=O)(=O)c2ccccc2)c(C)c(C)n1Cc1ccccc1` as the molecule, how does the TGI (NCI-H226 lung) read?
Its TGI is over 100 µM.

And the TGI (CCRF-CEM leukemia)?
Its TGI is over 100 µM.

What about the TGI (NCI/ADR-RES ovarian) of the same molecule?
Its TGI is over 100 µM.

What about the TGI (HL-60(TB) leukemia) of the same molecule?
The TGI was over 100 µM.

What about the TGI (ACHN renal) of the same molecule?
The TGI was over 100 µM.

What about the TGI (SW-620 colon) of the same molecule?
Its TGI is over 100 µM.

What about the TGI (HT29 colon) of the same molecule?
Its TGI is over 100 µM.

What about the TGI (MDA-MB-231 breast) of the same molecule?
Its TGI is over 100 µM.

And the TGI (UO-31 renal)?
The TGI was over 100 µM.

And the TGI (KM12 colon)?
Its TGI is over 100 µM.

What about the TGI (PC-3 prostate) of the same molecule?
The TGI was over 100 µM.

And the TGI (COLO 205 colon)?
The TGI was over 100 µM.

And the TGI (786-0 renal)?
The TGI was over 100 µM.

And the TGI (CAKI-1 renal)?
Its TGI is over 100 µM.

What about the TGI (OVCAR-5 ovarian) of the same molecule?
Its TGI is over 100 µM.

What about the TGI (U251 CNS) of the same molecule?
The TGI was over 100 µM.

And the TGI (NCI-H460 lung)?
Its TGI is over 100 µM.

What about the TGI (SNB-19 CNS) of the same molecule?
Its TGI is over 100 µM.

And the TGI (RXF 393 renal)?
The TGI was over 100 µM.

And the TGI (OVCAR-8 ovarian)?
The TGI was over 100 µM.

What about the TGI (SF-295 CNS) of the same molecule?
Its TGI is over 100 µM.

What about the TGI (SNB-75 CNS) of the same molecule?
Its TGI is over 100 µM.

And the TGI (BT-549 breast)?
The TGI was over 100 µM.

What about the TGI (NCI-H522 lung) of the same molecule?
Its TGI is over 100 µM.

What about the TGI (HCT-15 colon) of the same molecule?
Its TGI is over 100 µM.

What about the TGI (HCT-116 colon) of the same molecule?
Its TGI is over 100 µM.

And the TGI (M14 melanoma)?
The TGI was over 100 µM.

And the TGI (OVCAR-4 ovarian)?
The TGI was over 100 µM.

And the TGI (A549 NSCLC)?
Its TGI is over 100 µM.

And the TGI (SK-MEL-28 melanoma)?
The TGI was over 100 µM.

And the TGI (UACC-62 melanoma)?
The TGI was over 100 µM.

What about the TGI (SF-268 CNS) of the same molecule?
The TGI was over 100 µM.

And the TGI (MDA-N)?
Its TGI is over 100 µM.

What about the TGI (HS 578T breast) of the same molecule?
Its TGI is over 100 µM.

And the TGI (EKVX NSCLC)?
Its TGI is over 100 µM.

What about the TGI (SK-MEL-5 melanoma) of the same molecule?
Its TGI is over 100 µM.

And the TGI (SK-OV-3 ovarian)?
The TGI was over 100 µM.

And the TGI (HOP-92 NSCLC)?
The TGI was over 100 µM.

And the TGI (DU-145 prostate)?
The TGI was over 100 µM.

And the TGI (RPMI-8226 leukemia)?
The TGI was over 100 µM.

And the TGI (HCC-2998 colon)?
The TGI was over 100 µM.

And the TGI (MALME-3M melanoma)?
The TGI was over 100 µM.

And the TGI (MDA-MB-435)?
Its TGI is over 100 µM.

And the TGI (A498 renal)?
Its TGI is over 100 µM.

What about the TGI (UACC-257 melanoma) of the same molecule?
Its TGI is over 100 µM.

What about the TGI (K-562 leukemia) of the same molecule?
The TGI was over 100 µM.

What about the TGI (NCI-H23 lung) of the same molecule?
The TGI was over 100 µM.

What about the TGI (IGROV1 ovarian) of the same molecule?
Its TGI is over 100 µM.

And the TGI (MOLT-4 leukemia)?
The TGI was over 100 µM.

What about the TGI (OVCAR-3 ovarian) of the same molecule?
The TGI was over 100 µM.

And the TGI (TK-10 renal)?
The TGI was over 100 µM.

What about the TGI (SN12C renal) of the same molecule?
Its TGI is over 100 µM.

What about the TGI (SK-MEL-2 melanoma) of the same molecule?
The TGI was over 100 µM.

Which TGI (NCI-H226 lung) does the source give for `CN(CCNC(=O)c1cn(C)c2c1ccc1cc(Cl)c(Cl)cc12)CCNC(=O)c1cn(C)c2c1ccc1cc(Cl)c(Cl)cc12` here?
Its TGI is 96 µM.

What about the TGI (NCI/ADR-RES ovarian) of the same molecule?
Its TGI is over 100 µM.

What about the TGI (HL-60(TB) leukemia) of the same molecule?
Its TGI is 4.23 µM.

And the TGI (ACHN renal)?
The TGI was 3.73 µM.

And the TGI (HT29 colon)?
Its TGI is 3.41 µM.

What about the TGI (MDA-MB-231 breast) of the same molecule?
Its TGI is 3.25 µM.

And the TGI (PC-3 prostate)?
Its TGI is 3.26 µM.

And the TGI (786-0 renal)?
The TGI was 3.28 µM.

What about the TGI (CAKI-1 renal) of the same molecule?
Its TGI is over 100 µM.

What about the TGI (OVCAR-5 ovarian) of the same molecule?
The TGI was 9.98 µM.

And the TGI (U251 CNS)?
Its TGI is 3.19 µM.

And the TGI (SF-295 CNS)?
Its TGI is 6.2 µM.

What about the TGI (BT-549 breast) of the same molecule?
Its TGI is over 75.2 µM.

And the TGI (HCT-116 colon)?
Its TGI is 3.2 µM.

And the TGI (OVCAR-4 ovarian)?
The TGI was 5.67 µM.

And the TGI (UACC-62 melanoma)?
The TGI was 4.88 µM.

What about the TGI (SF-539 CNS) of the same molecule?
Its TGI is 16 µM.

What about the TGI (SF-268 CNS) of the same molecule?
The TGI was 15.5 µM.

And the TGI (MDA-N)?
Its TGI is 3.25 µM.

What about the TGI (EKVX NSCLC) of the same molecule?
The TGI was 10.9 µM.

What about the TGI (SK-MEL-5 melanoma) of the same molecule?
Its TGI is 35.2 µM.

And the TGI (SK-OV-3 ovarian)?
The TGI was 4.59 µM.

What about the TGI (HOP-92 NSCLC) of the same molecule?
The TGI was 12.1 µM.

And the TGI (DU-145 prostate)?
The TGI was 3.43 µM.

And the TGI (MALME-3M melanoma)?
Its TGI is 24.2 µM.

What about the TGI (A498 renal) of the same molecule?
Its TGI is 63.2 µM.

What about the TGI (NCI-H23 lung) of the same molecule?
Its TGI is 22 µM.

And the TGI (MOLT-4 leukemia)?
Its TGI is 0.36 µM.

What about the TGI (TK-10 renal) of the same molecule?
The TGI was over 100 µM.

Which results are given for `CC(=O)Oc1c(N2CCCCC2)c(C(=O)c2ccccc2)c(O)c2ccn(N(C)C)c12`?
TGI (MCF7 breast): 30.6 µM; TGI (NCI-H226 lung): 32.4 µM; TGI (CCRF-CEM leukemia): 76.1 µM; TGI (NCI/ADR-RES ovarian): 42.3 µM; TGI (HL-60(TB) leukemia): 29.5 µM; TGI (ACHN renal): 40.2 µM; TGI (SW-620 colon): 35.1 µM; TGI (HT29 colon): 29.3 µM; TGI (MDA-MB-231 breast): 30.6 µM; TGI (UO-31 renal): 35.4 µM; TGI (KM12 colon): 27.1 µM; TGI (PC-3 prostate): 33.7 µM; TGI (COLO 205 colon): 33.3 µM; TGI (786-0 renal): 33.8 µM; TGI (CAKI-1 renal): 33.8 µM; TGI (OVCAR-5 ovarian): > 100 µM; TGI (U251 CNS): 33.5 µM; TGI (NCI-H460 lung): 51.2 µM; TGI (SNB-19 CNS): 64.3 µM; TGI (RXF 393 renal): 48.4 µM; TGI (OVCAR-8 ovarian): 58.1 µM; TGI (SF-295 CNS): 42.4 µM; TGI (SNB-75 CNS): 32.5 µM; TGI (BT-549 breast): 42.7 µM; TGI (HCT-15 colon): 35.9 µM; TGI (HCT-116 colon): 22.5 µM; TGI (M14 melanoma): 53.7 µM; TGI (OVCAR-4 ovarian): 58.2 µM; TGI (LOX IMVI melanoma): 33.1 µM; TGI (A549 NSCLC): > 100 µM; TGI (SK-MEL-28 melanoma): 34.8 µM; TGI (UACC-62 melanoma): 30.3 µM; TGI (SF-539 CNS): 35.9 µM; TGI (SF-268 CNS): 57.5 µM; TGI (MDA-N): 35.3 µM; TGI (HS 578T breast): 66.8 µM; TGI (EKVX NSCLC): 31.2 µM; TGI (SK-MEL-5 melanoma): 29.7 µM; TGI (SK-OV-3 ovarian): 65.4 µM; TGI (HOP-92 NSCLC): 88.6 µM; TGI (DU-145 prostate): 56.6 µM; TGI (HOP-62 NSCLC): 93.2 µM; TGI (RPMI-8226 leukemia): 44.8 µM; TGI (HCC-2998 colon): 37.2 µM; TGI (MALME-3M melanoma): 31.8 µM; TGI (MDA-MB-435): 38.1 µM; TGI (A498 renal): 29.1 µM; TGI (UACC-257 melanoma): 31.2 µM; TGI (K-562 leukemia): > 100 µM; TGI (NCI-H23 lung): 38.5 µM; TGI (MOLT-4 leukemia): 49.8 µM; TGI (OVCAR-3 ovarian): 74.7 µM; TGI (TK-10 renal): 36.8 µM; TGI (SN12C renal): 33.7 µM; TGI (SK-MEL-2 melanoma): 54.6 µM
